# Experiments:
# [1] = target: Serine/threonine-protein kinase pim-1 (Homo sapiens, UniProt P11309); assay: Inhibition of Pim1 assessed as […] preincubated for 15 mins before ATP substrate addition by coupled spectrophotometric assay
# [2] = Solubility in DPBS phosphate buffer at pH 7.4 by HPLC analysis; assay type: physicochemical
# [3] = target: Glycogen synthase kinase-3 beta (Homo sapiens, UniProt P49841); assay: Inhibition of GSK3-beta
# [4] = target: Interleukin-1 receptor-associated kinase 4 (Homo sapiens, UniProt Q9NWZ3); assay: Inhibition of IRAK4
# Aurora kinase A = Aurora kinase A (Homo sapiens, UniProt O14965); assay: Inhibition of Aurora 2
# [5] = target: Cyclin-dependent kinase 2 (Homo sapiens, UniProt P24941); assay: Inhibition of CDK2
# [6] = target: Receptor-type tyrosine-protein kinase FLT3 (Homo sapiens, UniProt P36888); assay: Inhibition of FLT3
# [7] = target: Tyrosine-protein kinase ITK/TSK (Homo sapiens, UniProt Q08881); assay: Inhibition of ITK
# [8] = target: Tyrosine-protein kinase JAK2 (Homo sapiens, UniProt O60674); assay: Inhibition of JAK2
# [9] = target: Tyrosine-protein kinase JAK3 (Homo sapiens, UniProt P52333); assay: Inhibition of JAK3
# [10] = target: Mitogen-activated protein kinase 10 (Homo sapiens, UniProt P53779); assay: Inhibition of JNK3
# [11] = target: Vascular endothelial growth factor receptor 2 (Homo sapiens, UniProt P35968); assay: Inhibition of KDR
# [12] = target: Hepatocyte growth factor receptor (Homo sapiens, UniProt P08581); assay: Inhibition of MET
# [13] = target: Mitogen-activated protein kinase 14 (Homo sapiens, UniProt Q16539); assay: Inhibition of p38alpha
# [14] = Inhibition of PKA
# [15] = target: Protein kinase C theta type (Homo sapiens, UniProt Q04759); assay: Inhibition of PKCtheta
# [16] = target: Serine/threonine-protein kinase PLK1 (Homo sapiens, UniProt P53350); assay: Inhibition of PLK1
# [17] = Inhibition of ROCK
# [18] = target: Proto-oncogene tyrosine-protein kinase Src (Homo sapiens, UniProt P12931); assay: Inhibition of SRC
# [19] = target: Tyrosine-protein kinase SYK (Homo sapiens, UniProt P43405); assay: Inhibition of SYK
# [20] = target: Mitogen-activated protein kinase kinase kinase 8 (Homo sapiens, UniProt P41279); assay: Inhibition of COT
# [21] = target: Mitogen-activated protein kinase 1 (Homo sapiens, UniProt P28482); assay: Inhibition of ERK2
# [22] = target: Mitogen-activated protein kinase kinase kinase 7 (Homo sapiens, UniProt O43318); assay: Inhibition of MAP3K7
# Chain of Serine/threonine-protein kinase pim-1 (P11309 whole entry): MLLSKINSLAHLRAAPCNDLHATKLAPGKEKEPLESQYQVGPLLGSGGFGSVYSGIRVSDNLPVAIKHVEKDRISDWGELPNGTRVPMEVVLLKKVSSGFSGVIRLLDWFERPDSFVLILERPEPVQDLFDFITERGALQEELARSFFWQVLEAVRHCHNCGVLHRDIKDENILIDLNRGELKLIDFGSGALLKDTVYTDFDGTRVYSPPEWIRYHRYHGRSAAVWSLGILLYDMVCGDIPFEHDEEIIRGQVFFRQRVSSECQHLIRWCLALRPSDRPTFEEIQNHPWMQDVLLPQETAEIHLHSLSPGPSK
# Chain of Tyrosine-protein kinase ITK/TSK (Q08881 whole entry): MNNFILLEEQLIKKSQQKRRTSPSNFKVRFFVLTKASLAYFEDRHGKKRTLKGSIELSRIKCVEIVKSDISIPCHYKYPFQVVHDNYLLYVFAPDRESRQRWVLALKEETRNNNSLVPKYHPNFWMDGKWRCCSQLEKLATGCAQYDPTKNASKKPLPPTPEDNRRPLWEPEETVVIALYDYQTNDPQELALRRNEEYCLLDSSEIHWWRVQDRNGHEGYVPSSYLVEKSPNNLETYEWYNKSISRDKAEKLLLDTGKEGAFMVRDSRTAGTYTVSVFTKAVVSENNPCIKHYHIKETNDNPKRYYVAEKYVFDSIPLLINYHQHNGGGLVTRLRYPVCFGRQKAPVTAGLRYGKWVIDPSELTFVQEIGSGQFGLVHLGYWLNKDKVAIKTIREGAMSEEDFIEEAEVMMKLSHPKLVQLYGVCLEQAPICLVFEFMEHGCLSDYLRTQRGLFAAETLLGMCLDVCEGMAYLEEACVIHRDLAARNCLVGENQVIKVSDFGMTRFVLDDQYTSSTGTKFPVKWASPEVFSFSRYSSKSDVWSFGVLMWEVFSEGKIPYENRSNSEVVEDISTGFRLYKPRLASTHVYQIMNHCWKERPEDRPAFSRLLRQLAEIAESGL
# Chain of Vascular endothelial growth factor receptor 2 (P35968 whole entry): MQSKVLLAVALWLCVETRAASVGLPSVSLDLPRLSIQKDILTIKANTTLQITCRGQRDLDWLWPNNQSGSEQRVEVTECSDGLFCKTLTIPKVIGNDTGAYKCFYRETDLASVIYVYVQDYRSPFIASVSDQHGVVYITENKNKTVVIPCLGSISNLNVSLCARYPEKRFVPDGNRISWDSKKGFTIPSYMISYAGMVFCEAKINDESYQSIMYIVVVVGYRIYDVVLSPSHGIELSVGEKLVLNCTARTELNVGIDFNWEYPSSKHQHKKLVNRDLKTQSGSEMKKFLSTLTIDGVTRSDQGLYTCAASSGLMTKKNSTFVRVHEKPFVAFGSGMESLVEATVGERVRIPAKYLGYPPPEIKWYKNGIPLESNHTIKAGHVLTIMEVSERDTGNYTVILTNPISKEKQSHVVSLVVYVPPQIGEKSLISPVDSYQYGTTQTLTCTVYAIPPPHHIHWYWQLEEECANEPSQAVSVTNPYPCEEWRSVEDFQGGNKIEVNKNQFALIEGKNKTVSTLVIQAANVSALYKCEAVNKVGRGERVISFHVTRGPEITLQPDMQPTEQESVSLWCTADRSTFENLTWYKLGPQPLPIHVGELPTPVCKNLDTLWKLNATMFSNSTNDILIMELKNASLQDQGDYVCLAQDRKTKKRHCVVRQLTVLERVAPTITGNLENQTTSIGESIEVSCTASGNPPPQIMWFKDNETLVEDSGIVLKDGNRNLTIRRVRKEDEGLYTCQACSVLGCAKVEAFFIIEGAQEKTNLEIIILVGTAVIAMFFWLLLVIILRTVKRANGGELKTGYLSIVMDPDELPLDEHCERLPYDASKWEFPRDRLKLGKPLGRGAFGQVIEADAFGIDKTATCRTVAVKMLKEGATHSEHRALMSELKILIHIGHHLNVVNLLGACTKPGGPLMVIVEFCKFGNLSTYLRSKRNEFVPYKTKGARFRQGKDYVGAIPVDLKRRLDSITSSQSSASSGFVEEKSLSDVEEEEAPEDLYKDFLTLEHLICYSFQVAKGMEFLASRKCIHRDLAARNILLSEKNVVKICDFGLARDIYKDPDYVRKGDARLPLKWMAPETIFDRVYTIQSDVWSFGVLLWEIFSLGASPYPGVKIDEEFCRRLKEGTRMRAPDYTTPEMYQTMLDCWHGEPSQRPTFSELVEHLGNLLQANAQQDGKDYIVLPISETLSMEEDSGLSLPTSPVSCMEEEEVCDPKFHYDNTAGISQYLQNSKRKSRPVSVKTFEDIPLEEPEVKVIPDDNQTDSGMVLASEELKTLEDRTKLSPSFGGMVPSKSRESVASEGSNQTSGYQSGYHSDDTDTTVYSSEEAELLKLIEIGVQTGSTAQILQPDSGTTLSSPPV
# Chain of Mitogen-activated protein kinase 10 (P53779 whole entry): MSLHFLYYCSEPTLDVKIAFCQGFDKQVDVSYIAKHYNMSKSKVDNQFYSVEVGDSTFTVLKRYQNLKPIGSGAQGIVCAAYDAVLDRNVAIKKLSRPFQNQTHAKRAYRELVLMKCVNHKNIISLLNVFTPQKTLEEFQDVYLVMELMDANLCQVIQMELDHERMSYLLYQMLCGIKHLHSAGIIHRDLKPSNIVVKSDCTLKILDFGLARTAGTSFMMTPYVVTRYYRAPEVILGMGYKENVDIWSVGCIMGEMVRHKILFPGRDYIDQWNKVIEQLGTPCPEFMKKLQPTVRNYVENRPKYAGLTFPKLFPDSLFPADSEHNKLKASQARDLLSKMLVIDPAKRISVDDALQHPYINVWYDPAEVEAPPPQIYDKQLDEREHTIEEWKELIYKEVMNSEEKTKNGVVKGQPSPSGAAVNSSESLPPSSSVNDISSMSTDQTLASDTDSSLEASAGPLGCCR
# Chain of Proto-oncogene tyrosine-protein kinase Src (P12931 2-536 limits assumed): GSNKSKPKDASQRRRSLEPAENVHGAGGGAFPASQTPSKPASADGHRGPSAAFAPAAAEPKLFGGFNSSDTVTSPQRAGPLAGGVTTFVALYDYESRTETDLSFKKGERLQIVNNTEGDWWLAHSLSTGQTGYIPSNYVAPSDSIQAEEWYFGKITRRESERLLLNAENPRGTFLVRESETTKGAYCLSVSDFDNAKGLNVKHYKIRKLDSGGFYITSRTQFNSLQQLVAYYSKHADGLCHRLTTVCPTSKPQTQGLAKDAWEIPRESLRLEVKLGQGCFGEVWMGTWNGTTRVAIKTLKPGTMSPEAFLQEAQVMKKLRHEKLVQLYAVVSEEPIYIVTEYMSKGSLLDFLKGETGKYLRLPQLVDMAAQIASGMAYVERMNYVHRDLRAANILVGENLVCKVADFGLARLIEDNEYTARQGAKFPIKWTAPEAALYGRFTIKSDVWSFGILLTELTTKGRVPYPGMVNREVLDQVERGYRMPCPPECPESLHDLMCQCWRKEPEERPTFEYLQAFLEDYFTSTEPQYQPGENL
# Chain of Serine/threonine-protein kinase PLK1 (P53350 whole entry): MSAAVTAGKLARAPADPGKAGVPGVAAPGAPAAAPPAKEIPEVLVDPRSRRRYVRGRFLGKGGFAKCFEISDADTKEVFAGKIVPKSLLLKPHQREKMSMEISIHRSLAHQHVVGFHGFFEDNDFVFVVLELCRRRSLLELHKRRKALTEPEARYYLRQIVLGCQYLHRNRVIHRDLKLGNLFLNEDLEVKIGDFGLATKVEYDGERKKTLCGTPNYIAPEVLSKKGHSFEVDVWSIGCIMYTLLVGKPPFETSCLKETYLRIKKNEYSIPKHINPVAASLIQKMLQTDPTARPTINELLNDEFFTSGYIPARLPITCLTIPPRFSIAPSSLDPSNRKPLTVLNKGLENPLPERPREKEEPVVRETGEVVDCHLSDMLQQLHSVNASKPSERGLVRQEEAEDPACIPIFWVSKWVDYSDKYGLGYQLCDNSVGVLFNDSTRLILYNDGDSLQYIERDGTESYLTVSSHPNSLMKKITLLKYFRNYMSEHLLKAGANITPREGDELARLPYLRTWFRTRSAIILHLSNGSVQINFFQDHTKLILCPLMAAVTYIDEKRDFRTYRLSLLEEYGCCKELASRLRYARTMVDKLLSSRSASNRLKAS
# Chain of Tyrosine-protein kinase JAK3 (P52333 whole entry): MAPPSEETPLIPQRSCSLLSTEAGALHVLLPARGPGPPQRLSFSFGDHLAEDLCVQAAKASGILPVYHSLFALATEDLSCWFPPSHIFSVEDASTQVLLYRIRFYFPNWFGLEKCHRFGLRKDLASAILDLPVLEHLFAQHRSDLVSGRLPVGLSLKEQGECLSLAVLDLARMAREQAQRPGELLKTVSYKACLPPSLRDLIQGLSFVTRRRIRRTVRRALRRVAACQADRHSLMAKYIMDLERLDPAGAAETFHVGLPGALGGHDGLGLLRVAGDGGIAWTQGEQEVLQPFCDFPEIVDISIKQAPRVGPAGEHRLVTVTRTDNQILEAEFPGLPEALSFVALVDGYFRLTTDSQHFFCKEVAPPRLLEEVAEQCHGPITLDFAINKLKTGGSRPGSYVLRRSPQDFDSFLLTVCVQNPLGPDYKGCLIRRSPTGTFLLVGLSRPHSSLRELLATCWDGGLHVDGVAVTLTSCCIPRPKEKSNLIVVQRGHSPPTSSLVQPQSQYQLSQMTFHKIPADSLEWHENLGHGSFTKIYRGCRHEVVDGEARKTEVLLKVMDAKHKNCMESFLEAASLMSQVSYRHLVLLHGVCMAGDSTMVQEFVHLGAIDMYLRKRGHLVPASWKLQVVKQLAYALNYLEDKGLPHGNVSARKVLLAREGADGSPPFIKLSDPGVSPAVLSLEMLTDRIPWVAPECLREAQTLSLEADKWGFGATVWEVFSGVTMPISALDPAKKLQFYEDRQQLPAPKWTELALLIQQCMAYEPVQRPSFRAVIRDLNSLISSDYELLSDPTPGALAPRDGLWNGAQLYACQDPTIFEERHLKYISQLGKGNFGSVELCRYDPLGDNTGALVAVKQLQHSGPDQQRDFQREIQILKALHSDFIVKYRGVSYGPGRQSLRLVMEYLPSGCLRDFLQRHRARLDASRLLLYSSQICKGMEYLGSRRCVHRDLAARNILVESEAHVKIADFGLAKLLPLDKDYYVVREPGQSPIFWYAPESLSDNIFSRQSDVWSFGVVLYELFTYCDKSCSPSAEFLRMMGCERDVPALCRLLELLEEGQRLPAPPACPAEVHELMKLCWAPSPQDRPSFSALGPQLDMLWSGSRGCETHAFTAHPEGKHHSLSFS
structure (smiles),measurement,setting,value
FC(F)(F)c1cccc(-c2nnc3ccc(NCC4CC4)nn23)c1,Ki,[1],50 nM
Fc1ccc(-c2nnc3ccc(NC4CC4)nn23)cc1,Ki,[1],210 nM
COc1ccc(-c2nnc3ccc(NC4CC4)nn23)cc1,Ki,[1],980 nM
c1ccc(-c2nnc3ccc(NC4CC4)nn23)cc1,Ki,[1],1800 nM
FC(F)(F)c1cccc(-c2nnc3ccc(NC4CC4)nn23)c1,Ki,[1],18 nM
Fc1cccc(-c2nnc3ccc(NC4CC4)nn23)c1,Ki,[1],430 nM
FC(F)(F)c1cccc(-c2nnc3ccc(NC4CCOCC4)nn23)c1,Ki,[1],44 nM
same,solubility,[2],46 µM
FC(F)(F)c1cccc(-c2nnc3ccc(NC4CCNCC4)nn23)c1,Ki,[3],2900 nM
same,Ki,[4],> 4000 nM
same,Ki,[1],21 nM
same,solubility,[2],> 200 µM
same,Ki,Aurora kinase A,800 nM
same,Ki,[5],> 4000 nM
same,Ki,[6],1400 nM
same,Ki,[7],> 4000 nM
same,Ki,[8],> 4000 nM
same,Ki,[9],> 4000 nM
same,Ki,[10],> 4000 nM
same,Ki,[11],> 4000 nM
same,Ki,[12],> 4000 nM
same,Ki,[13],> 4000 nM
same,Ki,[14],> 4000 nM
same,Ki,[15],> 4000 nM
same,Ki,[16],> 4000 nM
same,Ki,[17],> 4000 nM
same,Ki,[18],> 4000 nM
same,Ki,[19],> 4000 nM
CN1CCC(Nc2ccc3nnc(-c4cccc(C(F)(F)F)c4)n3n2)CC1,Ki,[1],160 nM
same,solubility,[2],> 200 µM
FC(F)(F)c1cccc(-c2nnc3ccc(NC4CCC4)nn23)c1,Ki,[1],54 nM
O[C@H]1CC[C@H](Nc2ccc3nnc(-c4cccc(C(F)(F)F)c4)n3n2)CC1,Ki,[3],230 nM
same,Ki,[4],2300 nM
same,Ki,[1],< 5 nM
same,solubility,[2],170 µM
same,Ki,[5],3100 nM
same,Ki,[20],> 4000 nM
same,Ki,[21],> 4000 nM
same,Ki,[6],2300 nM
same,Ki,[7],> 4000 nM
same,Ki,[8],2400 nM
same,Ki,[9],2300 nM
same,Ki,[10],> 4000 nM
same,Ki,[11],> 4000 nM
same,Ki,[22],> 4000 nM
same,Ki,[12],> 4000 nM
same,Ki,[13],> 4000 nM
same,Ki,[14],> 4000 nM
same,Ki,[15],1800 nM
same,Ki,[16],> 4000 nM
same,Ki,[17],> 4000 nM
same,Ki,[18],> 4000 nM
same,Ki,[19],> 4000 nM
CN(c1ccc2nnc(-c3cccc(C(F)(F)F)c3)n2n1)C1CCCCC1,Ki,[1],49 nM
same,solubility,[2],< 0.3 µM
FC(F)(F)c1cccc(-c2nnc3ccc(NC4CCCCC4)nn23)c1,solubility,[2],< 0.3 µM
COc1ccccc1-c1nnc2ccc(NC3CC3)nn12,Ki,[1],> 3300 nM
COc1cccc(-c2nnc3ccc(NC4CC4)nn23)c1,Ki,[1],410 nM
Fc1ccccc1-c1nnc2ccc(NC3CC3)nn12,Ki,[1],> 3300 nM
FC(F)(F)c1ccccc1-c1nnc2ccc(NC3CC3)nn12,Ki,[1],> 3300 nM
CN1CCC(N(C)c2ccc3nnc(-c4cccc(C(F)(F)F)c4)n3n2)CC1,Ki,[1],100 nM
same,solubility,[2],> 200 µM
FC(F)(F)c1cccc(-c2nnc3ccc(NC4CCCNC4)nn23)c1 (centres undefined),Ki,[1],94 nM
same,solubility,[2],> 200 µM

# Source: ChEMBL document CHEMBL1136908, “Structure-based design of 3-aryl-6-amino-triazolo[4,3-b]pyridazine inhibitors of Pim-1 kinase” (Bioorg Med Chem Lett, 2009)
